Data from US20240150356A1, “Pyrimidine amide compounds and use thereof” (ALPHALA CO., LTD., priority 2019, published 2024).

What follows are compounds tested on Hep3B cells (hepatocellular carcinoma cell line) (assay: In vitro MTS cell viability assay (NCI-60 methodology), Hep3B). Conditions: Homo sapiens, 48 h, Table 1, MTS, 2 days drug incubation, 50% reduction vs time zero, read-out: Hep3B LC50.
Type: cell-based
How it was run: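 Hep3B cells given five 2-fold dilutions of compound for 2 days, with viability by MTS measured at time zero and at end. LC50 is the concentration giving a 50% fall in viable cells relative to the start of treatment, per NCI-60 formula.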

Compound | LC50 [µM]
CC(C)(C)n1ncc2c(NC(=O)c3ccc([N+](=O)[O-])s3)nc(-c3ccc(C(F)(F)F)cc3)nc21 [Compound 1-26, N-(1-(tert-butyl)-6-(4-(trifluoromethyl)phenyl)-1H-pyrazolo[3,4,d]pyrimidin-4-yl)-5-nitrothiophene-2-carboxamide] | 0.79
CN(C)c1ccc(-c2nc(NC(=O)c3ccc([N+](=O)[O-])s3)c3cnn(C)c3n2)cc1 [Compound 1-10, N-(6-(4-(dimethylamino)phenyl)-1-methyl-1H-pyrazolo[3,4-d]pyrimidin-4-yl)-5-nitrothiophene-2-carboxamide] | > 5
O=C(Nc1nc(-c2ccc(OC(F)(F)F)cc2)nc2c1cnn2CCN1CCC(F)(F)C1)c1ccc([N+](=O)[O-])s1 [Compound 1-32, N-(1-(2-(3,3-difluoropyrrolidin-1-yl)ethyl)-6-(4-(trifluoromethoxy)phenyl)-1H-pyrazolo[3,4-d]pyrimidin-4-yl)-5-nitrothiophene-2-carboxamide] | 0.77

Same assay, conditions: Homo sapiens, 48 h, Table 4, MTS, 2 days drug incubation, 50% reduction vs time zero, read-out: Hep3B LC50

Compound | LC50 [µM]
O=C(Nc1nc(-c2ccc(F)cc2)nc2c(-c3cccc(F)c3)csc12)c1ccc([N+](=O)[O-])s1 [Compound 4-18, N-(7-(3-fluorophenyl)-2-(4-fluorophenyl)thieno[3,2-d]pyrimidin-4-yl)-5-nitrothiophene-2-carboxamide] | 0.49
Cc1csc2c(NC(=O)c3ccc([N+](=O)[O-])s3)nc(-c3ccc(C(C)(C)C)cc3)nc12 [Compound 4-1] | 1.15
Cc1csc2c(NC(=O)c3ccc([N+](=O)[O-])s3)nc(-c3ccc(OC(F)(F)F)cc3)nc12 [Compound 4-4, N-(7-methyl-2-(4-(trifluoromethoxy)phenyl)thieno[3,2-d]pyrimidin-4-yl)-5-nitrothiophene-2-carboxamide] | 0.89

Same assay, conditions: Homo sapiens, 48 h, Table 5, MTS, 2 days drug incubation, 50% reduction vs time zero, read-out: Hep3B LC50

Compound | LC50 [µM]
O=C(Nc1nc(-c2ccccc2F)nc2c1cnn2-c1ccccc1)c1ccc([N+](=O)[O-])s1 [Compound 5-25, N-(6-(2-fluorophenyl)-1-phenyl-1H-pyrazolo[3,4-d]pyrimidin-4-yl)-5-nitrothiophene-2-carboxamide] | 0.46
CN(C)CCOc1nc(NC(=O)c2ccc([N+](=O)[O-])s2)c2cnn(-c3ccccc3)c2n1 [Compound 5-11, N-(6-(2-(dimethylamino)ethoxy)-1-phenyl-1H-pyrazolo[3,4-d]pyrimidin-4-yl)-5-nitrothiophene-2-carboxamide] | 4.13
O=C(Nc1nc(-c2ccc(F)cc2)nc2c1cnn2-c1ccccc1)c1ccc([N+](=O)[O-])s1 [Compound 5-27] | 0.27
O=C(Nc1nc(-c2ccc(N3CCOCC3)nc2)nc2c1cnn2-c1ccccc1)c1ccc([N+](=O)[O-])s1 [Compound 5-43, N-(6-(6-morpholinopyridin-3-yl)-1-phenyl-1H-pyrazolo[3,4-d]pyrimidin-4-yl)-5-nitrothiophene-2-carboxamide] | 0.57

Same assay, conditions: Homo sapiens, 48 h, Table 6, MTS, 2 days drug incubation, 50% reduction vs time zero, read-out: Hep3B LC50

Compound | LC50 [µM]
Cc1ccc(-n2ncc3c(NC(=O)c4ccc([N+](=O)[O-])s4)nc(-c4ccc(C(F)(F)F)cc4)nc32)cc1 [Compound 6-8, 5-nitro-N-(1-(p-tolyl)-6-(4-(trifluoromethyl)phenyl)-1H-pyrazolo[3,4-d]pyrimidin-4-yl)thiophene-2-carboxamide] | 0.35
O=C(Nc1nc(N2CCC[C@H]2CO)nc2c1cnn2-c1ccc(F)cc1)c1ccc([N+](=O)[O-])s1 [Compound 6-102, (S)—N-(1-(4-fluorophenyl)-6-(2-(hydroxymethyl)pyrrolidin-1-yl)-1H-pyrazolo[3,4-d]pyrimidin-4-yl)-5-nitrothiophene-2-carboxamide] | 1.3
COc1ccc(-n2ncc3c(NC(=O)c4ccc([N+](=O)[O-])s4)nc(-c4ccc(Cl)nc4)nc32)cc1 [Compound 6-21, N-(6-(6-chloropyridin-3-yl)-1-(4-methoxyphenyl)-1H-pyrazolo[3,4,d]pyrimidin-4-yl)-5-nitrothiophene-2-carboxamide] | 0.12
CCOCCOCCOc1ccc(-c2nc(NC(=O)c3ccc([N+](=O)[O-])s3)c3cnn(-c4ccc(C)cc4)c3n2)cn1 [Compound 6-14] | 0.22
Cc1ccn(-c2nc(NC(=O)c3ccc([N+](=O)[O-])s3)c3cnn(-c4ccc(C(C)(C)C)cc4)c3n2)n1 [Compound 6-77, N-(1-(4-(tert-butyl)phenyl)-6-(3-methyl-1H-pyrazol-1-yl)-1H-pyrazolo[3,4-d]pyrimidin-4-yl)-5-nitrothiophene-2-carboxamide] | 0.25
COc1ccc(-c2nc(NC(=O)c3ccc([N+](=O)[O-])s3)c3cnn(-c4ccc(C(C)(C)C)cc4)c3n2)cn1 [Compound 6-82, N-(1-(4-(tert-butyl)phenyl)-6-(6-methoxypyridin-3-yl)-1H-pyrazolo[3,4-d]pyrimidin-4-yl)-5-nitrothiophene-2-carboxamide] | 0.38
Cc1ccccc1-n1ncc2c(NC(=O)c3ccc([N+](=O)[O-])s3)nc(-c3ccc(F)nc3)nc21 [Compound 6-2] | > 3

Same assay, conditions: Homo sapiens, 48 h, Table 7, MTS, 2 days drug incubation, 50% reduction vs time zero, read-out: Hep3B LC50

Compound | LC50 [µM]
O=C(Nc1nc(-c2ccc(Cl)cc2)nc2c1cnn2-c1ccc(F)cc1F)c1ccc([N+](=O)[O-])s1 [Compound 7-14] | 0.58
O=C(Nc1nc(-c2ccc(F)nc2)nc2c1cnn2-c1ccc(F)cc1F)c1ccc([N+](=O)[O-])s1 [Compound 7-13] | 0.13

Same assay, conditions: Homo sapiens, 48 h, Table 8, MTS, 2 days drug incubation, 50% reduction vs time zero, read-out: Hep3B LC50

Compound | LC50 [µM]
CC(C)(C)OC(=O)N1CC[C@H](n2ncc3c(NC(=O)c4ccc([N+](=O)[O-])s4)nc(-c4ccc(F)nc4)nc32)C1 [Compound 8-7, tert-butyl (S)-3-(6-(6-fluoropyridin-3-yl)4-(5-nitrothiophene-2-carboxamido)-1H-pyrazolo[3,4-d]pyrimidin-1-yl)pyrrolidine-1-carboxylate] | 1.49
C=CC(=O)N1CC[C@H](n2ncc3c(NC(=O)c4ccc([N+](=O)[O-])s4)nc(-c4ccc(F)nc4)nc32)C1 [Compound 8-3, (S)—N-(1-(1-acryloylpyrrolidin-3-yl)-6-(6-fluoropyridin-3-yl)-1H-pyrazolo[3,4-d]pyrimidin-4-yl)-5-nitrothiophene-2-carboxamide] | > 3
CC(C)N1CC[C@H](n2ncc3c(NC(=O)c4ccc([N+](=O)[O-])s4)nc(-c4ccc(F)nc4)nc32)C1 [Compound 8-1, (S)—N-(6-(6-fluoropyridin-3-yl)-1-(1-isopropylpyrrolidin-3-yl)-1H-pyrazolo[3,4-d]pyrimidin-4-yl)-5-nitrothiophene-2-carboxamide] | > 3
C[C@@H]1C[C@@H](n2ncc3c(NC(=O)c4ccc([N+](=O)[O-])s4)nc(-c4ccc(F)cc4)nc32)CC(C)(C)C1 [Compound 8-13, N-(6-(4-fluorophenyl)-1-((1R,5S)-3,3,5-trimethylcyclohexyl)-1H-pyrazolo[3,4-d]pyrimidin-4-yl)-5-nitrothiophene-2-carboxamide] | 0.9
CCOC(=O)N1CC[C@@H](n2ncc3c(NC(=O)c4ccc([N+](=O)[O-])s4)nc(-c4ccc(F)nc4)nc32)C1 [Compound 8-6, ethyl (R)-3-(6-(6-fluoropyridin-3-yl)-4-(5-nitrothiophene-2-carboxamido)-1H-pyrazolo[3,4-d]pyrimidin-1-yl)pyrrolidine-1-carboxylate] | > 2

Same assay, conditions: Homo sapiens, 48 h, Table 9, MTS, 2 days drug incubation, 50% reduction vs time zero, read-out: Hep3B LC50

Compound | LC50 [µM]
CCOCCOCCOC(=O)N1CCC(n2ncc3c(NC(=O)c4ccc([N+](=O)[O-])s4)nc(-c4cccs4)nc32)CC1 [Compound 9-10, 2-(2-ethoxyethoxy)ethyl 4-(4-(5-nitrothiophene-2-carboxamido)-6-(thiophen-2-yl)-1H-pyrazolo[3,4-d]pyrimidin-1-yl)piperidine-1-carboxylate] | > 3
CCCC(=O)N1CCC(n2ncc3c(NC(=O)c4ccc([N+](=O)[O-])s4)nc(-c4ccc(F)nc4)nc32)CC1 [Compound 9-7, N-(1-(1-butyrylpiperidin-4-yl)-6-(6-fluoropyridin-3-yl)-1H-pyrazolo[3,4-d]pyrimidin-4-yl)-5-nitrothiophene-2-carboxamide] | > 5

Same assay, conditions: Homo sapiens, 48 h, Table 10, MTS, 2 days drug incubation, 50% reduction vs time zero, read-out: Hep3B LC50

Compound | LC50 [µM]
COc1cncc(-c2nc(NC(=O)c3ccc([N+](=O)[O-])s3)c3cnn(C4CCCCC4)c3n2)c1 [Compound 10-22] | 1.16
CC1(C)CCC(n2ncc3c(NC(=O)c4ccc([N+](=O)[O-])s4)nc(-c4ccc(F)nc4)nc32)CC1 [Compound 10-62, N-(1-(4,4-dimethylcyclohexyl)-6-(6-fluoropyridin-3-yl)-1H-pyrazolo[3,4-d]pyrimidin-4-yl)-5-nitrothiophene-2-carboxamide] | 0.71
O=C(Nc1nc(-c2cccnc2)nc2c1cnn2C1CCCCC1)c1ccc([N+](=O)[O-])s1 [Compound 10-10, N-(1-cyclohexyl-6-(pyridin-3-yl)-1H-pyrazolo[3,4,d]pyrimidin-4-yl)-5-nitrothiophene-2-carboxamide] | 0.99
CCOc1ccc(-c2nc(NC(=O)c3ccc([N+](=O)[O-])s3)c3cnn(C4CCC(F)(F)CC4)c3n2)cc1 [Compound 10-59, N-(1-(4,4<fluorocyclohexyl)-4-(4-ethoxyphenyl)-1H-pyrazolo[3,4-d]pyrimidin-4-yl)-5-nitrothiophene-2-carboxamide] | 1.28
CC(C)(C)c1ccc(-c2nc(NC(=O)c3ccc([N+](=O)[O-])s3)c3cnn(C4CCCCC4)c3n2)cc1 [Compound 10-35, N-(6-(4-(tert-butyl)phenyl)-1-cyclohexyl-1H-pyrazolo[3,4,d]pyrimidin-4-yl)-5-nitrothiophene-2-carboxamide] | 1.33
O=C(Nc1nc(N2CCC(F)(F)CC2)nc2c1cnn2C1CCCCC1)c1ccc([N+](=O)[O-])s1 [Compound 10-2, N-(1-cyclohexyl-6-(4,4-difluoropiperidin-1-yl)-1H-pyrazolo[3,4-d]pyrimidin-4-yl)-5-nitrothiophene-2-carboxamide] | 3.12
